Measured values taken from US9080214B2, “Genetic markers for efficacy of iloperidone in the treatment of psychotic symptoms” (Vanda Pharmaceuticals, Inc., priority 2007, dated 2015).

System: individuals diagnosed with schizophrenia
Test: Change in PANSS-P subscale by SNP genotype, patients on iloperidone 24 mg/day b.i.d. for 28 days (MMRM)
Type: in vivo, human
From the text: Earlier studies investigated an association between a polymorphism in the CNTF gene and iloperidone efficacy as well as associations between CYP2D6 and KCNQ1 genotypes and changes in QT interval following the administration of iloperidone. The present study involved the genotyping of DNA samples collected from 426 individuals diagnosed with schizophrenia in an attempt to identify additional SNPs associated with iloperidone efficacy. Each sample was genotyped at more than 500,000 SNP loci using the GeneChip® Human Mapping 500K Array Set (Affymetrix, Santa Clara, Calif.) and using assays developed in-house. Approximately half of the participants in the study were administered 24 mg/day of iloperidone, b.i.d., for 28 days. About 25% of the patients were administered ziprasidone. The remaining participants were administered a placebo. Three analyses of the PANSS-T were conducted. 1) A two-step approach where samples were randomly split into 2 groups of iloperidone-treated patients used to discover SNPs associated with changed in PANSS-T (Discovery phase) and a second group to confirm the 100 most significant SNPs (Confirmatory phase). 2) A one-step approach using the Last Observation Carried Forward (LOCF) PANSS-T data of all iloperidone-treated patients. For each SNP, the most parsimonious genetic model (e.g., homozygous for one allele v. all other genotypes [i.e., AA v. AB and BB], heterozygous v. homozygous [i.e., AB v. AA and BB]) was established with respect to iloperidone efficacy using a one-way analysis of variance (ANOVA). 3) A Mixed-effects Model Repeated Measures (MMRM) analysis was subsequently conducted using the best genetic model of each SNP in the MMRM model. MMRM analyses were also conducted with the PANSS subscales PANSS-P, PANSS-N, and PANSS-GP. The SNPs with a statistically significant association in all 3 analyses of PANSS-T, as well as the best of each analysis were considered significant findings and are listed below in Table 1. Results for each of these SNPs with the PANSS-T scales and with the three subscales PANSS-P, PANSS-N, and PANSS-GP are shown in Tables 2, 3, 4, and 5, respectively. […] In the present case of iloperidone efficacy, it is likely that different markers are more specifically associated with one or a few specific clinical symptoms, which is reflected in the improvement measured in separate subscales.

SMILES: COc1cc(C(C)=O)ccc1OCCCN1CCC(c2noc3cc(F)ccc23)CC1 [iloperidone, 1-[4-[3-[4-(6-fluoro-1,2-benzisoxazol-3-yl)-1-piperidinyl]propoxy]-3-methoxyphenyl]ethanone]
- mean of change in PANSS-P (SNP_A-1819750 (CREG1) genotype A_A): −5.31
- mean of change in PANSS-P (SNP_A-1819750 (CREG1) genotype A_B*): −4.28
- mean of change in PANSS-P (SNP_A-1819750 (CREG1) genotype B_B): −5.02
- mean of change in PANSS-P (SNP_A-1819750 (CREG1) genotype nonAB**): −5.11
- mean of change in PANSS-P (SNP_A-1860353 (RAP1B) genotype A_A**): −9.20
- mean of change in PANSS-P (SNP_A-1860353 (RAP1B) genotype A_B): −4.42
- mean of change in PANSS-P (SNP_A-1860353 (RAP1B) genotype B_B): −4.28
- mean of change in PANSS-P (SNP_A-1860353 (RAP1B) genotype nonAA*): −4.30
- mean of change in PANSS-P (SNP_A-1934663 genotype A_A): −5.65
- mean of change in PANSS-P (SNP_A-1934663 genotype A_B): −5.78
- mean of change in PANSS-P (SNP_A-1934663 genotype B_B*): −3.40
- mean of change in PANSS-P (SNP_A-1934663 genotype nonBB**): −5.75
- mean of change in PANSS-P (SNP_A-1973093 (KIAA0040) genotype A_A): −5.12
- mean of change in PANSS-P (SNP_A-1973093 (KIAA0040) genotype A_B*): −2.58
- mean of change in PANSS-P (SNP_A-1973093 (KIAA0040) genotype B_B): −5.64
- mean of change in PANSS-P (SNP_A-1973093 (KIAA0040) genotype nonAB**): −5.54
- mean of change in PANSS-P (SNP_A-1975928 (SLC2A9) genotype A_A): −4.60
- mean of change in PANSS-P (SNP_A-1975928 (SLC2A9) genotype A_B): −4.79
- mean of change in PANSS-P (SNP_A-1975928 (SLC2A9) genotype B_B*): 6.19
- mean of change in PANSS-P (SNP_A-1975928 (SLC2A9) genotype nonBB**): −4.65
- mean of change in PANSS-P (SNP_A-1987915 (GPR126) genotype A_A): −3.53
- mean of change in PANSS-P (SNP_A-1987915 (GPR126) genotype A_B): −3.43
- mean of change in PANSS-P (SNP_A-1987915 (GPR126) genotype B_B**): −5.95
- mean of change in PANSS-P (SNP_A-1987915 (GPR126) genotype nonBB*): −3.45
- mean of change in PANSS-P (SNP_A-2007721 (LOC58486) genotype A_A): −1.70
- mean of change in PANSS-P (SNP_A-2007721 (LOC58486) genotype A_B**): −7.48
- mean of change in PANSS-P (SNP_A-2007721 (LOC58486) genotype B_B): −3.42
- mean of change in PANSS-P (SNP_A-2007721 (LOC58486) genotype nonAB*): −3.41
- mean of change in PANSS-P (SNP_A-2044214 (HNT) genotype A_A): −5.77
- mean of change in PANSS-P (SNP_A-2044214 (HNT) genotype A_B*): −2.08
- mean of change in PANSS-P (SNP_A-2044214 (HNT) genotype B_B): −5.64
- mean of change in PANSS-P (SNP_A-2044214 (HNT) genotype nonAB**): −5.73
- mean of change in PANSS-P (SNP_A-2048427 (NPAS3) genotype A_A): −6.16
- mean of change in PANSS-P (SNP_A-2048427 (NPAS3) genotype A_B): −6.26
- mean of change in PANSS-P (SNP_A-2048427 (NPAS3) genotype B_B*): −3.61
- mean of change in PANSS-P (SNP_A-2048427 (NPAS3) genotype nonBB**): −6.24
- mean of change in PANSS-P (SNP_A-2070454 (NKX2-5) genotype A_A): −4.04
- mean of change in PANSS-P (SNP_A-2070454 (NKX2-5) genotype A_B): −3.89
- mean of change in PANSS-P (SNP_A-2070454 (NKX2-5) genotype B_B**): −5.75
- mean of change in PANSS-P (SNP_A-2070454 (NKX2-5) genotype nonBB*): −3.94
- mean of change in PANSS-P (SNP_A-2076797 (NUDT9P1) genotype A_A): −2.57
- mean of change in PANSS-P (SNP_A-2076797 (NUDT9P1) genotype A_B**): −6.55
- mean of change in PANSS-P (SNP_A-2076797 (NUDT9P1) genotype B_B): −2.27
- mean of change in PANSS-P (SNP_A-2076797 (NUDT9P1) genotype nonAB*): −2.42
- mean of change in PANSS-P (SNP_A-2103099 (HTR1A) genotype A_A): −6.05
- mean of change in PANSS-P (SNP_A-2103099 (HTR1A) genotype A_B*): −2.88
- mean of change in PANSS-P (SNP_A-2103099 (HTR1A) genotype B_B): −5.88
- mean of change in PANSS-P (SNP_A-2103099 (HTR1A) genotype nonAB**): −5.95
- mean of change in PANSS-P (SNP_A-2120958 genotype A_A): −4.97
- mean of change in PANSS-P (SNP_A-2120958 genotype A_B): −4.92
- mean of change in PANSS-P (SNP_A-2120958 genotype B_B*): 1.49
- mean of change in PANSS-P (SNP_A-2120958 genotype nonBB**): −4.95
- mean of change in PANSS-P (SNP_A-2170121 (C6) genotype A_A): −3.49
- mean of change in PANSS-P (SNP_A-2170121 (C6) genotype A_B**): −6.98
- mean of change in PANSS-P (SNP_A-2170121 (C6) genotype B_B): −4.26
- mean of change in PANSS-P (SNP_A-2170121 (C6) genotype nonAB*): −3.56
- mean of change in PANSS-P (SNP_A-2274533 (LZTS1) genotype A_A**): −5.34
- mean of change in PANSS-P (SNP_A-2274533 (LZTS1) genotype A_B): −2.64
- mean of change in PANSS-P (SNP_A-2274533 (LZTS1) genotype B_B): −2.63
- mean of change in PANSS-P (SNP_A-2274533 (LZTS1) genotype nonAA*): −2.63
- mean of change in PANSS-P (SNP_A-2283283 (XKR4) genotype A_A*): −1.85
- mean of change in PANSS-P (SNP_A-2283283 (XKR4) genotype A_B): −4.92
- mean of change in PANSS-P (SNP_A-2283283 (XKR4) genotype B_B): −5.41
- mean of change in PANSS-P (SNP_A-2283283 (XKR4) genotype nonAA**): −5.12
- mean of change in PANSS-P (SNP_A-2284243 (GRIA4) genotype A_A): −5.09
- mean of change in PANSS-P (SNP_A-2284243 (GRIA4) genotype A_B): −5.09
- mean of change in PANSS-P (SNP_A-2284243 (GRIA4) genotype B_B*): −2.11
- mean of change in PANSS-P (SNP_A-2284243 (GRIA4) genotype nonBB**): −5.09
- mean of change in PANSS-P (SNP_A-4204396 (CDH13) genotype A_A): −4.76
- mean of change in PANSS-P (SNP_A-4204396 (CDH13) genotype A_B): −4.99
- mean of change in PANSS-P (SNP_A-4204396 (CDH13) genotype B_B*): 1.63
- mean of change in PANSS-P (SNP_A-4204396 (CDH13) genotype nonBB**): −4.85
- mean of change in PANSS-P (SNP_A-4212785 (PPP1R3B) genotype A_A*): 4.95
- mean of change in PANSS-P (SNP_A-4212785 (PPP1R3B) genotype A_B): −4.78
- mean of change in PANSS-P (SNP_A-4212785 (PPP1R3B) genotype B_B): −4.70
- mean of change in PANSS-P (SNP_A-4212785 (PPP1R3B) genotype nonAA**): −4.73
- mean of change in PANSS-P (SNP_A-4230979 (ASB3) genotype A_A): −2.80
- mean of change in PANSS-P (SNP_A-4230979 (ASB3) genotype A_B): −3.63
- mean of change in PANSS-P (SNP_A-4230979 (ASB3) genotype B_B**): −5.84
- mean of change in PANSS-P (SNP_A-4230979 (ASB3) genotype nonBB*): −3.45
- mean of change in PANSS-P (SNP_A-4256833 (MLCK) genotype A_A): −4.59
- mean of change in PANSS-P (SNP_A-4256833 (MLCK) genotype A_B*): −2.78
- mean of change in PANSS-P (SNP_A-4256833 (MLCK) genotype B_B): −5.14
- mean of change in PANSS-P (SNP_A-4256833 (MLCK) genotype nonAB**): −5.10
- mean of change in PANSS-P (SNP_A-4258279 (RRM1) genotype A_A): −5.01
- mean of change in PANSS-P (SNP_A-4258279 (RRM1) genotype A_B*): −0.85
- mean of change in PANSS-P (SNP_A-4258279 (RRM1) genotype B_B): −5.25
- mean of change in PANSS-P (SNP_A-4258279 (RRM1) genotype nonAB**): −5.24
